Tested on: green peach aphid (Myzus persicae)
Assay: Myzus test (MYZUPE spray treatment)
Assay type: in vivo
Conditions: after 5 days; application rate 500 g/ha; spray on Chinese cabbage discs; 100% = all aphids killed
Procedure: Myzus Test (MYZUPE Spray Treatment) Solvent: 78 parts by weight of acetone and 1.5 parts by weight of dimethylformamide Emulsifier: 0.5 part by weight of alkylaryl polyglycol ether To prepare an active ingredient formulation, 1 part by weight of active ingredient is mixed with the specified amounts of solvent and emulsifier, and the concentrate is diluted to the desired concentration with emulsifier-containing water. Discs of Chinese cabbage (Brassica pekinensis) infested with all stages of the green peach aphid (Myzus persicae) are sprayed with an active ingredient formulation of the desired concentration. After the desired time, the efficacy in % is determined. 100% means that all aphids have been killed; 0% means that no aphids have been killed.

SMILES: CC(=O)OCC(=CC(=O)OC(C)C)N(C)Cc1ccc(Cl)nc1 [Compound 1]
- efficacy in %: 80%
